Columns and labels:
[1] = system: Sox9; experiment: Real-Time PCR gene expression in human chondrocytes: Sox9; format: cell-based; settings: 1% w/v, ratio to untreated control
Description: To evaluate the biological effects of chondroitin on human chondrocyte cultures, the expression of a set of genes considered key to establishing the phenotype, and suitable markers for evaluating the quality of the tissue generated, was determined. The study was conducted on chondrocytes prepared from human cartilage, as reported in Example 2, the cells being grown in the presence of chondroitin or chondroitin sulphate. Using a standard procedure, 5*10^4 cells per well were seeded in a 24-well multiwell plate. The chondrocytes were grown in DMEM containing 1% w/v of chondroitin or chondroitin sulphate (endotoxin content ≤0.1 EU/mg). The cells were stimulated for 4, 7 and 10 days (Ishak et al., International J. of Pediatric Otorhinolaryngology, 2011, 75: 835-840), after which the RNA was extracted with Trizol Reagent, as described in the kit manual (Life Technologies Ltd, Milan, Italy). A qualitative morphological analysis of the cell culture was also conducted at the various times, in parallel with RNA extraction, by observing the corresponding samples at 4, 7 and 10 days under the optical microscope. The cells seeded at the three different times were observed under the microscope, and the images that best represented the cell growth conditions were acquired using a time-lapse videomicroscopy workstation. After RNA extraction, reverse transcription was performed with a total of 1 μg RNA and then with amplification by Real-Time PCR of genes which are specific markers for chondrocytes (Table 3).
Genes connected with matrix production, such as aggrecan, type I collagen, type II collagen and the Sox9 gene, the expression of which is closely correlated with the expression of type II collagen, were analysed as specific markers for differentiation and characterisation of chondrocytes. (Akiyama H., Mod Rheumatol., 2008, 18(3): 213-9; Yang et al., J. of Orthopaedic Res. 2011).
The gene expression of said markers on human chondrocytes cultured in basic medium (control) and with chondroitin treatment (C) or chondroitin sulphate treatment (CS) was analysed on cell cultures in the second and third growth phases.
The results of the gene expression analysis were reported as the average of at least 3 independent experiments for tests conducted in the presence of C or CS, on cells in phases 2 and 3.

[2] = system: dogs suffering from DJD; experiment: Treatment of degenerative joint disease in dogs; format: in vivo, dog; settings: dogs with DJD, 15 mg/Kg/day with food, 6 months; scale of 1 to 10; placebo 2.5±1.3
Description: The therapeutic potential of chondroitin in the treatment of joint disease was evaluated in the dog, an experimental model wherein degenerative or inflammatory orthopaedic problems associated with degenerative joint disease (DJD) are particularly recurrent at both young and geriatric age.
The study was conducted on 90 animals with a mean weight of 30±10 Kg, a mean age of about 8 years, of different breeds, both males and females, all suffering from DJD of the shoulder, hip and/or stifle, randomised into three groups of 30 animals treated with 15 mg/Kg/day of chondroitin (C group), 15 mg/Kg/day of chondroitin sulphate (CS group) or 15 mg/Kg/day of starch (placebo group). The animals received the daily dose with their food. An X-ray and a set of diagnostic tests for DJD were conducted on a preliminary basis on all the animals included in the study. […] The study continued for 6 months; during the treatment, the animals, which were cared for by their owners, were monitored by three veterinary surgeons who independently evaluated the state of the animals. Every month the animals' owners and the three veterinary surgeons filled in a questionnaire, allocating a score on a scale of 1-5 to a set of parameters. Once a month the owners evaluated, on a scale of 1 to 5, the lameness of the animal, its willingness to play, load tolerance, and behaviour indicating pain symptoms. […]

**Q.** Which “Fold Expression, Sox9” value ([1]; phase II, 4 g) does the source give for “chondroitin sulphate [CS, reference compound]” here?
**A.** The value was 2.2 ± 1.20.

**Q.** What about the “Fold Expression, Sox9” value ([1]; phase II, 7 g) of the same substance?
**A.** Its value is 0.86 ± 0.31.

**Q.** And the “Fold Expression, Sox9” value ([1]; phase II, 10 g)?
**A.** The value was 0.53 ± 0.02.

**Q.** And the “Fold Expression, Sox9” value ([1]; phase III, 4 g)?
**A.** The value was 2.6 ± 1.21.

**Q.** And the “Fold Expression, Sox9” value ([1]; phase III, 7 g)?
**A.** Its value is 1.41 ± 0.04.

**Q.** And the “Fold Expression, Sox9” value ([1]; phase III, 10 g)?
**A.** Its value is 0.81 ± 0.05.

**Q.** What about the “average overall score for the regression of the disease” value [2] of the same substance?
**A.** The value was 5.3±2.3.

**Q.** chondroitin was tested. Which “Fold Expression, Sox9” value ([1]; phase II, 4 g) did it give?
**A.** The value was 1.87 ± 0.85.

**Q.** And the “Fold Expression, Sox9” value ([1]; phase II, 7 g)?
**A.** Its value is 1.16 ± 0.15.

**Q.** And the “Fold Expression, Sox9” value ([1]; phase II, 10 g)?
**A.** Its value is 1.78 ± 0.75.

**Q.** What about the “Fold Expression, Sox9” value ([1]; phase III, 4 g) of the same substance?
**A.** The value was 3.68 ± 0.44.

**Q.** And the “Fold Expression, Sox9” value ([1]; phase III, 7 g)?
**A.** Its value is 1.09 ± 0.01.

**Q.** What about the “Fold Expression, Sox9” value ([1]; phase III, 10 g) of the same substance?
**A.** Its value is 0.53 ± 0.02.

**Q.** What about the “average overall score for the regression of the disease” value [2] of the same substance?
**A.** The value was 8.5±2.1.
